Results: patent publication US20260022142A1, “MACROCYCLIC IMMUNOMODULATORS” (Bristol-Myers Squibb Company, priority 2022, published 2026)
Bridge positions count the residues as written; N and C are the ends. Square brackets hold non-standard residues; d marks the D form. Peptide text beside a SMILES is read from it. * marks the point of attachment. Phe(4-COOH) = N[C@@H](Cc1ccc(C(=O)O)cc1)C(=O)O; Bip = N[C@@H](Cc1ccc(-c2ccccc2)cc1)C(=O)O; Phe(3-Me) = Cc1cccc(C[C@H](N)C(=O)O)c1; Val(3-F) = CC(C)(F)[C@H](N)C(=O)O; Cha = N[C@@H](CC1CCCCC1)C(=O)O; Cit = NC(=O)NCCC[C@H](N)C(=O)O; Carboxymethyl = O=C(O)C*; Orn = NCCC[C@H](N)C(=O)O; Aun = NCCCCCCCCCCC(=O)O; Dab = NCC[C@H](N)C(=O)O; Piv = CC(C)(C)C(=O)*

Molecular target: T1, PD-1/PD-L1 interaction (PE-labeled human PD-L1-Ig binding to Jurkat cell line over-expressing human PD-1) (Homo sapiens, UniProt Q15116)
T1 construct: expressed in transfected cells; host or cells: Jurkat
Assay: Jurkat-PD-1 Cell Binding High-Content Screening Assay (CBA)
Format: cell-based
Settings: Jurkat cell line over-expressing human PD-1; PE-labeled PD-L1-Ig 20 nM final; read-out: Jurkat hPD1-PDL1 IC50
Outline: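 Jurkat-hPD-1 cells, DMEM/10% FCS; cpd 2 h 37° C; PE-PD-L1-Ig 20 nM final, 1 h; 4% PFA fix + Hoechst 33342, 3× dPBS wash; high-content imaging read-out.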

T1 sequence (Q15116 25-288): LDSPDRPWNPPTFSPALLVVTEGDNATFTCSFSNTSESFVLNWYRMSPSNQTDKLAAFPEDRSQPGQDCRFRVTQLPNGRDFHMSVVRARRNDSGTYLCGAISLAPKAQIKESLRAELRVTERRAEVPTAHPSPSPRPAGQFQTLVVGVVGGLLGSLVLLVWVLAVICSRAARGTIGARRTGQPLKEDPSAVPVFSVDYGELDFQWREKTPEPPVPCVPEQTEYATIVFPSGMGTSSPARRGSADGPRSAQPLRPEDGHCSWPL

| SMILES | IC50 |
| --- | --- |
| Cc1cccc(C[C@@H]2NC(=O)[C@H](CC(=O)O)NC(=O)[C@H](Cc3ccc(OCC(=O)O)cc3)NC(=O)[C@H](CCCNC(=N)N)NC(=O)CSC[C@@H](C(=O)N[C@@H](CCN)C(=O)NCCCCCCCCCCC(=O)O)NC(=O)[C@H]([C@@H](C)O)NC(=O)[C@H](C(C)C)NC(=O)[C@H](CC3CCCCC3)NC(=O)[C@H](CCN)NC(=O)[C@@H](CC(C)C)NC(=O)[C@H](CCCN)NC(=O)[C@H](CCCNC(N)=O)NC(=O)[C@H](Cc3ccc(-c4ccccc4)cc3)NC(=O)[C@H](C(C)(C)F)NC2=O)c1 [Compound 2124] ({CH2CO}-RY(Carboxymethyl)D[Phe(3-Me)][Val(3-F)][Bip][Cit][Orn][dL][Dab][Cha]VTC[Dab][Aun]-OH; thioether N-14) | 17.3 nM |
| Cc1cccc(C[C@@H]2NC(=O)[C@H](CC(=O)O)NC(=O)[C@H](Cc3ccc(OCC(=O)O)cc3)NC(=O)[C@H](CCCNC(=N)N)NC(=O)CSC[C@@H](C(=O)N[C@@H](CCN)C(=O)NCCCCCCCCCCC(=O)O)NC(=O)[C@H]([C@@H](C)O)NC(=O)[C@H](C(C)(C)F)NC(=O)[C@H](CC3CCCCC3)NC(=O)[C@H](CCN)NC(=O)[C@@H](CC(C)C)NC(=O)[C@H](CCCN)NC(=O)[C@H](Cc3ccc(O)cc3)NC(=O)[C@H](Cc3ccc(-c4ccccc4)cc3)NC(=O)[C@H](Cc3ccc(O)cc3)NC2=O)c1 [Compound 2126] ({CH2CO}-RY(Carboxymethyl)D[Phe(3-Me)]Y[Bip]Y[Orn][dL][Dab][Cha][Val(3-F)]TC[Dab][Aun]-OH; thioether N-14) | 35.7 nM |
| Cc1cccc(C[C@@H]2NC(=O)[C@H](CC(=O)O)NC(=O)[C@H](Cc3ccc(OCC(=O)O)cc3)NC(=O)[C@H](CCNC(=O)C(C)(C)C)NC(=O)CSC[C@@H](C(=O)N[C@@H](CCN)C(=O)NCCCCCCCCCCC(=O)O)NC(=O)[C@H]([C@@H](C)O)NC(=O)[C@H](C(C)C)NC(=O)[C@H](CC3CCCCC3)NC(=O)[C@H](CCN)NC(=O)[C@@H](CC(C)C)NC(=O)[C@H](CCCN)NC(=O)[C@H](Cc3ccc(OCC(=O)O)cc3)NC(=O)[C@H](Cc3ccc(-c4ccccc4)cc3)NC(=O)[C@H](Cc3ccc(C(=O)O)cc3)NC2=O)c1 [Compound 2127] ({CH2CO}-[Dab](Piv)Y(Carboxymethyl)D[Phe(3-Me)][Phe(4-COOH)][Bip]Y(Carboxymethyl)[Orn][dL][Dab][Cha]VTC[Dab][Aun]-OH; thioether N-14) | 28.4 nM |

Now from value to molecule:

| IC50 | SMILES |
| --- | --- |
| 16.4 nM | Cc1cccc(C[C@@H]2NC(=O)[C@H](CC(=O)O)NC(=O)[C@H](Cc3ccc(OCC(=O)O)cc3)NC(=O)[C@H](CCCNC(=N)N)NC(=O)CSC[C@@H](C(=O)N[C@@H](CCN)C(=O)NCCCCCCCCCCC(=O)O)NC(=O)[C@H]([C@@H](C)O)NC(=O)[C@H](C(C)C)NC(=O)[C@H](CC3CCCCC3)NC(=O)[C@H](CCN)NC(=O)[C@@H](CC(C)C)NC(=O)[C@H](CCCN)NC(=O)[C@H](Cc3ccc(O)cc3)NC(=O)[C@H](Cc3ccc(-c4ccccc4)cc3)NC(=O)[C@H](C(C)(C)F)NC2=O)c1 [Compound 2125] ({CH2CO}-RY(Carboxymethyl)D[Phe(3-Me)][Val(3-F)][Bip]Y[Orn][dL][Dab][Cha]VTC[Dab][Aun]-OH; thioether N-14) |
| 10.6 nM | Cc1cccc(C[C@@H]2NC(=O)[C@H](CC(=O)O)NC(=O)[C@H](Cc3ccc(OCC(=O)O)cc3)NC(=O)[C@H](CCNC(=O)C(C)(C)C)NC(=O)CSC[C@@H](C(=O)N[C@@H](CCN)C(=O)NCCCCCCCCCCC(=O)O)NC(=O)[C@H](CCC(N)=O)NC(=O)[C@H](C(C)C)NC(=O)[C@H](CC3CCCCC3)NC(=O)[C@H](CCN)NC(=O)[C@@H](CC(C)C)NC(=O)[C@H](CCCN)NC(=O)[C@H](Cc3ccc(OCC(=O)O)cc3)NC(=O)[C@H](Cc3ccc(-c4ccccc4)cc3)NC(=O)[C@H](Cc3ccc(C(=O)O)cc3)NC2=O)c1 [Compound 2128] ({CH2CO}-[Dab](Piv)Y(Carboxymethyl)D[Phe(3-Me)][Phe(4-COOH)][Bip]Y(Carboxymethyl)[Orn][dL][Dab][Cha]VQC[Dab][Aun]-OH; thioether N-14) |
